# What was measured:
# LC3-II and APP-CTFs = assay: EAL flux in NPC1 mice (cerebellum LC3-II and APP-CTFs); type: in vivo, mouse; conditions: treated 3 weeks; for restoring autophagic flux with respect to reducing LC3-II levels: relative to untreated NPC1
# Source text: FIG. 14 is a histogram of the ratio of LC3-II expression to βIII-tubulin in the cerebellum of mouse NPC1 brains at 9-12 weeks of age treated with ADLL, ALL, ADL, DLL, LL, DL, LLE, and miglustat (miglu.) for 3 weeks relative to untreated NPC1 cerebellum (n=4, mean±S.E.M).
# FIG. 15 is a histogram of the ratio of APP-CTFs: full-length APP expression in the cerebellum of mouse NPC1 brains at 9-12 weeks of age treated with ADLL, ALL, ADL, DLL, LL, DL, LLE, and miglustat (miglu.) for 3 weeks relative to untreated NPC1 cerebellum (n=4, mean±S.E.M).
# FIG. 16 is a histogram of the ratio of APP-CTF-6: full-length APP expression in the cerebellum of mouse NPC1 brains at 9-12 weeks of age treated with ADLL, ALL, ADL, DLL, LL, DL, and LLE for 3 weeks relative to untreated NPC1 cerebellum.
# FIG. 17 is a histogram of the ratio of APP-CTF-7: full-length APP expression in the cerebellum of mouse NPC1 brains at 9-12 weeks of age treated with ADLL, ALL, ADL, DLL, LL, DL, and LLE for 3 weeks relative to untreated NPC1 cerebellum (n=4, mean±S.E.M).
# The efficacy of ADLL, ALL, ADL, DLL, LL, DL, and LLE in alleviating the impairment of EAL flux in NPC1 mice was investigated. […] Without wishing to be bound by any particular theory, it is possible that ADL and LLE reduced autophagic vacuole (AV) build-up by inhibiting autophagosome formation, possibly through the activation mTORC1. […] Also, acetyl L-leucine (ALL), acetyl D-leucine (ADL) and L-leucine (LL) reduced CTF-7 expression, indicating some improvement in lysosomal proteolysis (FIG. 17).
# [1] = test system: CD68 positive activated microglia; assay: CD68 positive activated microglia in cerebellum of Npc1−/− mice; type: in vivo; conditions: 59 days of age, compared to Npc1−/− UT
# Source text: (§1) FIG. 46 is an image showing cerebellar Purkinje cell loss progressing from anterior to posterior lobes and microglial activation in untreated Npc1^−/− mice and Npc1^−/− mice treated with ADLL, ALL, and ADL. Cerebellums were stained with calbindin-b (Purkinje cells) or CD68 (activated microglia).
# FIG. 48 is a scatter graph showing frequency of CD68 positive activated microglia at 59 days of age in untreated Npc1^−/− mice and Npc1^−/− mice treated with ADLL, ALL, and ADL. CD68 cell density was measured in the cerebellum. n=5 animals per group. Mean±SD, *** p<0.0009 (one-way ANOVA).
# (§2) The combination of increased survival of neurons and a less inflammatory environment in the brain could improve brain function, quality of life, and delay the progression of disease in human subjects.
# [2] = test system: cerebellar Purkinje cells; assay: Purkinje cell survival in Npc1−/− mice; type: in vivo
# Source text: as §1
# FIG. 47 is a scatter graph showing Purkinje cell survival at 59 days of age in untreated Npc1^−/− mice and Npc1^−/− mice treated with ADLL, ALL, and ADL.
# as §2
# [3] = test system: rat primary cortical neurons (NE and NG cultures); assay: Truncated tau and neuronal markers in neuron-enriched and neuron-glia cultures; type: cell-based; conditions: for tolerability (levels of synaptophysin and βIII-tubulin vs untreated control): NE and NG cultures, 1 mM, five days (DIV 9-14); for reduction of basal levels of truncated tau: NG cultures at DIV14, 1 mM, five days
# Procedure: FIG. 20 is eight Western blots of tau (5E2), synaptophysin and βIII-tubulin in rat primary cortical neurons (neuron-enriched (NE) and neuron-glia (NG) cultures) in the absence and presence of ADLL, ALL, ADL, DLL, LL, DL, and LLE (1 mM, 5 days).
# The efficacy of ADLL, ALL, ADL, DLL, LL, DL, and LLE in reducing truncated tau levels in neuron-glia (NG) cultures was investigated. The results of this study are provided in FIGS. 20-24 One aim of this study was to determine whether ADLL, ALL, ADL, DLL, LL, DL, and LLE conferred intrinsic neuroprotection by sustaining neuronal function under conditions of cellular overgrowth, or whether they acted indirectly through the non-autonomous modulation of glial cells. Irrespective of whether the compounds acted directly or indirectly on neurons, preventing the generation of truncated tau confers beneficial effects to neuronal integrity.
# Cultures were treated for five days (DIV 9-14) with 1 mM of ADLL, ALL, ADL, DLL, LL, DL, or LLE, and were subsequently assessed for a number of neuron-specific markers that could provide a readout on neuronal health: βIII-tubulin, full-length tau, truncated tau (antibody 5E2) and synaptophysin. ADLL, ALL, ADL, DLL, LL, DL, and LLE were well-tolerated in NE and NG cultures, as evidenced by consistently equal levels of synaptophysin and βIII-tubulin detected across untreated (control) and drug-treated samples (FIGS. 20, 23, and 24). None of ADLL, ALL, ADL, DLL, LL, DL, and LLE reduced basal levels of truncated tau in NG cultures at DIV14 (FIG. 20 and FIG. 22).
# [4] = test system: rat primary cortical neurons; assay: U18666A-mediated impairment of lysosomal fusion in rat primary cortical neurons; type: cell-based; conditions: for CTF-6 and -7 (endosomal-lysosomal fusion) / LC3-II levels: co-treated with U18666A (2 μg/mL) and compound 1 mM
# Procedure: (§3) FIG. 18. is a histogram of the ratio of LC3-II normalised to βIII tubulin (expressed as a percentage of untreated (n=1)) in rat primary cortical neurons that were treated with U18666A (2 μg/ml, 24 hr) in the absence or presence of ADLL, ALL, ADL, DLL, LL, DL, and LLE (1 mM, 24 hr).
# as §3, with “19” for “18.”, “is” for “is a”, “APP-CTFs-6 and -7” for “LC3-II”, “their respective CTFs in untreated cells” for “βIII tubulin”, “(n=1)” for “(n=1))”
# The efficacy of ADLL, ALL, ADL, DLL, LL, DL, and LLE in alleviating the U18666A-mediated impairment of autophagosome-lysosome fusion and endosomal lysosomal fusion was investigated. In this cell-based assay of impaired EAL flux, the reappearance of basal levels of APP CTFs-6 and -7, provided an indication of improved endosomal-lysosomal fusion.
# Neurons were co-treated with U18666A (2 μg/mL) along with ADLL, ALL, ADL, DLL, LL, DL, and LLE (1 mM, 24 h).
# [5] = test system: patients with cerebellar ataxia; conditions: cited from earlier work
# [6] = test system: traumatic brain injury patient; assay: Case report: patient with traumatic brain injury given acetyl-DL-leucine; type: in vivo, human; conditions: TBI patient
# Procedure: A patient suffering from traumatic brain injury was administered acetyl-DL-leucine at a dose of 3 g per day for the first week, followed by a dose of 5 g per day.
# patients with ataxia = conditions: in responders; cited from earlier work
# [7] = test system: patients with Niemann-Pick Type C (NPC); conditions: one-month study, 12 patients; cited from earlier work
# LC3-II = conditions: WO 2018/029658; cited from earlier work
# [8] = 59 days of age, relative to untreated Npc1−/− littermates
compound,measurement,setting,value
"CC(=O)N[C@H](CC(C)C)C(=O)O [ADL, acetyl-D-leucine]",CTF-7 expression / clearance,LC3-II and APP-CTFs,reduced
same,impact on frequency of CD68 positive activated microglia,[1],did not have an impact
same,Purkinje cell survival in any cerebellar lobules,"[2]; 59 days of age, compared to Npc1−/− UT",did not improve
same,long-term neuroprotective effects,[2]; Npc1−/− mice,did not mediate any
same,tolerability (levels of synaptophysin and βIII-tubulin vs untreated control),[3],well-tolerated
same,reduction of basal levels of truncated tau,[3],None
same,CTF-6 and -7 (endosomal-lysosomal fusion),[4]; 24 h,reappearance of basal amounts
same,LC3-II levels,[4]; 24 h,lower than the basal levels
"CC(C)C[C@H](N)C(=O)O [LL, L-leucine]",CTF-6 accumulation,LC3-II and APP-CTFs,did reduce
same,CTF-7 expression / clearance,LC3-II and APP-CTFs,reduced
same,tolerability (levels of synaptophysin and βIII-tubulin vs untreated control),[3],well-tolerated
same,reduction of basal levels of truncated tau,[3],None
same,CTF-6 and -7 (endosomal-lysosomal fusion),[4]; 24 h,reappearance of basal amounts
"CC(C)CC(N)C(=O)O (racemic) [DLL, DL-leucine]",tolerability (levels of synaptophysin and βIII-tubulin vs untreated control),[3],well-tolerated
same,reduction of basal levels of truncated tau,[3],None
same,CTF-6 and -7 (endosomal-lysosomal fusion),[4]; 24 h,reappearance of basal amounts
"CC(C)C[C@@H](N)C(=O)O [DL, D-leucine]",CTF-7 expression / clearance,LC3-II and APP-CTFs,positive effects
same,tolerability (levels of synaptophysin and βIII-tubulin vs untreated control),[3],well-tolerated
same,reduction of basal levels of truncated tau,[3],None
same,CTF-6 and -7 (endosomal-lysosomal fusion),[4]; 24 h,reappearance of basal amounts
"CC(=O)NC(CC(C)C)C(=O)O (racemic) [ADLL, acetyl-DL-leucine]","benefit, another case series (Pelz et al. 2015)",[5]; cerebellar patients,did not find benefit
same,"cerebellar ataxia symptoms, case series (Strupp et al. 2013)",[5]; cerebellar patients,symptomatic improvement
same,temporal gait variability (quantitative gait analysis),[5]; patients with cerebellar ataxia,improved
same,behaviour / level of activity after treatment,"[6]; 3 g per day first week, then 5 g per day",more active behaviour
same,level of activity after medication was stopped,[6]; medication stopped,returned to its original level
same,"reduction in APP-CTFs, particularly CTF-6 and -7",LC3-II and APP-CTFs,not accompanied by a concomitant reduction
same,restoring autophagic flux with respect to reducing LC3-II levels,LC3-II and APP-CTFs,effective in restoring autophagic flux
same,impact on frequency of CD68 positive activated microglia,[1],did not have an impact
same,more Purkinje cells in lobule III,[2]; [8],402%
same,more Purkinje cells present in lobules I and II,[2]; [8],133%
same,metabolism in the midbrain and lower brainstem (PET),patients with ataxia,increased metabolism
same,tolerability (levels of synaptophysin and βIII-tubulin vs untreated control),[3],well-tolerated
same,reduction of basal levels of truncated tau,[3],None
same,ataxia symptoms in NPC patients,[7],symptomatic improvement of ataxia
same,LC3-II in NPC1 mouse brain,LC3-II,lowering of LC3-II
same,CTF-6 and -7 (endosomal-lysosomal fusion),[4]; 24 h,reappearance of basal amounts
same,LC3-II levels,[4]; 24 h,lower than the basal levels
"CCOC(=O)[C@@H](N)CC(C)C [LLE, L-leucine ethyl ester]","reduction in APP-CTFs, particularly CTF-6 and -7",LC3-II and APP-CTFs,not accompanied by a concomitant reduction
same,restoring autophagic flux with respect to reducing LC3-II levels,LC3-II and APP-CTFs,effective in restoring autophagic flux
same,tolerability (levels of synaptophysin and βIII-tubulin vs untreated control),[3],well-tolerated
same,reduction of basal levels of truncated tau,[3],None
same,CTF-6 and -7 (endosomal-lysosomal fusion),[4]; 24 h,reappearance of basal amounts
"CCN(CC)CCO[C@H]1CC[C@@]2(C)C(=CC[C@@H]3[C@@H]2CC[C@]2(C)C(=O)CC[C@@H]32)C1 [U18666A, reference compound]",CTFs-6 and 7,"[4]; U18666A alone 2 μg/mL, 24 hr, DIV14",complete absence
same,LC3-II accumulation,"[4]; U18666A alone, 24 h",did not cause an increase
